Test results published in ChEMBL document CHEMBL5360592, “Ursane-Type Triterpenes with a Phenylpropanoid Unit from Camellia ptilosperma and Evaluation of Their Cytotoxic Activities” (J Nat Prod, 2023).

Tests used:
Assay type in all cases: functional, cell-based
[1] = tested on: NCI-H460; experiment: Cytotoxicity against human NCI-H460 cells assessed as inhibition of cell growth incubated for 24 hrs by MTT assay; conditions: NCI-H460, 24 h
[2] = tested on: HT-29; experiment: Cytotoxicity against human HT-29 cells assessed as inhibition of cell growth incubated for 24 hrs by MTT assay; conditions: HT-29, 24 h
[3] = tested on: CT26; experiment: Cytotoxicity against mouse CT26 cells assessed as inhibition of cell growth incubated for 24 hrs by MTT assay; conditions: CT26, 24 h
[4] = tested on: A549; experiment: Cytotoxicity against human A549 cells assessed as inhibition of cell growth incubated for 24 hrs by MTT assay; conditions: A549, 24 h
[5] = tested on: MDA-MB-231; experiment: Cytotoxicity against human MDA-MB-231 cells assessed as inhibition of cell growth incubated for 24 hrs by MTT assay; conditions: MDA-MB-231, 24 h
[6] = Cytotoxicity against mouse LL2 cells assessed as inhibition of cell growth incubated for 24 hrs by MTT assay; conditions: Lewis lung carcinoma
[7] = Cytotoxicity against mouse Hepa1-6 cells assessed as inhibition of cell growth incubated for 24 hrs by MTT assay; conditions: Hepa1-6, 24 h
[8] = tested on: HeLa; experiment: Cytotoxicity against human HeLa cells assessed as inhibition of cell growth incubated for 24 hrs by MTT assay
[9] = tested on: HCT-116; experiment: Cytotoxicity against human HCT-116 cells assessed as inhibition of cell growth incubated for 24 hrs by MTT assay; conditions: HCT-116, 24 h

Row | Compound | IC50 [1] [µM] | IC50 [2] [µM] | IC50 [3] [µM] | IC50 [4] [µM] | IC50 [5] [µM] | IC50 [6] [µM] | IC50 [7] [µM] | IC50 [8] [µM] | IC50 [9] [µM]
1 | COc1cc([C@H]2OC3=C4[C@@H]5[C@@H](C)[C@H](C)CC[C@]5(C)CC[C@@]4(C)[C@]4(C)CC[C@H]5C(C)(C)[C@@H](O)CC[C@]5(C)[C@H]4[C@@H]3O[C@@H]2CO)ccc1O | > 10 | 5.1 | > 10 | > 10 | 2.7 | > 10 | 2.7 | 0.7 | 1.4
2 | COc1cc([C@H]2O[C@@H]3C(=C4[C@@H]5[C@@H](C)[C@H](C)CC[C@]5(C)CC[C@@]4(C)[C@]4(C)CC[C@H]5C(C)(C)[C@@H](O)CC[C@]5(C)[C@@H]34)O[C@@H]2CO)ccc1O | > 10 | 6.8 | 7.5 | > 10 | 2.2 | > 10 | 4.7 | 5.2 | 5.7
3 | COC(=O)[C@]1(C)[C@@H]2CC[C@]3(C)[C@H]([C@@H]4O[C@H](CO)[C@@H](c5ccc(O)c(OC)c5)OC4=C4[C@@H]5[C@@H](C)[C@H](C)CC[C@]5(C)CC[C@]43C)[C@@]2(C)CC[C@@H]1O | > 10 | > 10 | 8.2 | > 10 | > 10 | > 10 | > 10 | > 10 | > 10
4 | COC(=O)[C@@]1(C)[C@@H]2CC[C@]3(C)[C@H]([C@@H]4O[C@@H](c5ccc(O)c(OC)c5)[C@@H](C)OC4=C4[C@@H]5[C@@H](C)[C@H](C)CC[C@]5(C)CC[C@]43C)[C@@]2(C)CC[C@@H]1O | > 10 | 8.5 | > 10 | > 10 | > 10 | > 10 | 4.1 | 8.1 | > 10
5 | COC(=O)[C@@]1(C)[C@@H]2CC[C@]3(C)[C@H]([C@@H]4O[C@H](c5ccc(O)c(OC)c5)[C@@H](C)OC4=C4[C@@H]5[C@@H](C)[C@H](C)CC[C@]5(C)CC[C@]43C)[C@@]2(C)CC[C@@H]1O | > 10 | > 10 | 9.1 | > 10 | 4.9 | > 10 | > 10 | > 10 | 8.2
6 | COC(=O)[C@@]1(C)[C@@H]2CC[C@]3(C)[C@H]([C@@H]4O[C@H](C)[C@@H](c5ccc(O)c(OC)c5)OC4=C4[C@@H]5[C@@H](C)[C@H](C)CC[C@]5(C)CC[C@]43C)[C@@]2(C)CC[C@@H]1O | > 10 | > 10 | > 10 | > 10 | 9.3 | > 10 | > 10 | > 10 | 7.5
